Values quoted from earlier work as cited in patent US5502059A, “Substituted 1-naphthyl-3-pyrazolecarboxamides which are active on neurotensin, their preparation and pharmaceutical compositions containing them” (Sanofi, priority 1993, dated 1996).

Test system: neurotensin receptors

For `COc1cccc(OC)c1-c1cc(C(=O)NC2(C(=O)O)C3CC4CC(C3)CC2C4)nn1-c1ccnc2cc(Cl)ccc12` (stereo not shown) [SR 48692, 2-1-(7-chloro-4-quinolyl)-5-(2,6-dimethoxyphenyl)-3pyrazolylcarbonylamino!-2-adamantanecarboxylic acid], the neurotensin-antagonist activity is given as “potent and selective neurotensin-antagonist activity”.
